pIC50: −log10 of the molar value. ≈ marks a conversion by molar mass, not a printed value. Read-outs that look alike come from different tables or passages of the source.
How the values were obtained:
[1] = target: T1, PBP1 (Neisseria gonorrhoeae, UniProt O05131); assay: PBP-binding assay (Bocillin FL) in isolated membrane preparations; details: strain ATCC 19424
T1 construct: endogenous in cells; host or cells: N. gonorrhoeae ATCC 19424, isolated membrane preparation
Text: (§1) Bacterial membranes were collected by ultracentrifugation.

[2] = test system: N. gonorrhoeae ATCC 19424; assay: MIC, CLSI broth microdilution; assay type: cell-based; details: Neisseria gonorrhoeae
[3] = test system: N. gonorrhoeae ATCC 49226; assay: MIC, CLSI broth microdilution; assay type: cell-based, Neisseria gonorrhoeae; details: Neisseria gonorrhoeae
[4] = target: T2, PBP1 (Neisseria gonorrhoeae, UniProt O05131, A375T/F666S); assay: PBP-binding assay (Bocillin FL) in isolated membrane preparations; set-up: species or system Neisseria gonorrhoeae ATCC 49226
T2 construct: endogenous in cells; host or cells: N. gonorrhoeae ATCC 49226, isolated membrane preparation
Text: as §1

[5] = test system: N. gonorrhoeae; details: single 2-g dose; isolates with an MIC above 0.5 mg/L; cited from earlier work
[6] = target: T3, PBP2 (Neisseria gonorrhoeae, UniProt P08149, H541N); assay: PBP-binding assay (Bocillin FL) in isolated membrane preparations; set-up: species or system Neisseria gonorrhoeae ATCC 19424
T3 construct: endogenous in cells; host or cells: N. gonorrhoeae ATCC 19424, isolated membrane preparation

[7] = target: T4, PBP1, PBP2 and PBP3 (Neisseria gonorrhoeae, UniProt Q5FAB9); assay type: binding, Neisseria gonorrhoeae ATCC 19424; details: read-out: min. IC50 (minimum observed IC50 value); strain ATCC 19424
T4 sequence (Q5FAB9 22-469): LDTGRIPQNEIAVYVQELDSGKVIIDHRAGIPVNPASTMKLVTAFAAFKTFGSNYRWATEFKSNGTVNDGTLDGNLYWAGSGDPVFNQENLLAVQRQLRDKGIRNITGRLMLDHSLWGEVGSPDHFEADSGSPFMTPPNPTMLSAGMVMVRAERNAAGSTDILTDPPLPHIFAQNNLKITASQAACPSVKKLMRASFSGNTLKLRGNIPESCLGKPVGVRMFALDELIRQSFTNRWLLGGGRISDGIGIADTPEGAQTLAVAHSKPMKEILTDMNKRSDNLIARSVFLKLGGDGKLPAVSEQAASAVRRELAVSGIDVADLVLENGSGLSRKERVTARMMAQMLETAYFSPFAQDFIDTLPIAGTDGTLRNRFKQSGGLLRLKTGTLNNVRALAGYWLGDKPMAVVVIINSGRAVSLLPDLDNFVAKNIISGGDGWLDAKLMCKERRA

[8] = target: T4, PBP1, PBP2 and PBP3; assay type: binding, Neisseria gonorrhoeae ATCC 49226; details: read-out: min. IC50 (minimum observed IC50 value); strain ATCC 49226
[9] = target: T5, PBP3 (Neisseria gonorrhoeae, UniProt Q5FAB9); details: read-out: IC50 PBP3; strain ATCC 19424; membrane preparation, 30 min drug then Bocillin FL
T5 sequence (Q5FAB9 22-469): T4 sequence (Q5FAB9 22-469)

[10] = target: T5, PBP3; details: read-out: IC50 PBP3; strain ATCC 49226; membrane preparation, 30 min drug then Bocillin FL
[11] = target: T6, PBP2 (Neisseria gonorrhoeae, UniProt P08149, A510V/A516G/A574V/F504L/H541N/I556V/I566V/K555Q/P552V); assay: biochemical; assay type: binding, Neisseria gonorrhoeae ATCC 49226
T6 construct: endogenous in cells; host or cells: N. gonorrhoeae ATCC 49226, isolated membrane preparation

[12] = test system: PBP1, PBP2 and PBP3; assay type: binding, Neisseria gonorrhoeae ATCC 19424; details: strain ATCC 19424
[13] = target: PBP1, PBP2 and PBP3 (Neisseria gonorrhoeae, UniProt P08149, H541N); assay type: binding, Neisseria gonorrhoeae ATCC 19424; details: read-out: min. IC50 (minimum observed IC50 value); strain ATCC 19424
[14] = test system: PBP1, PBP2 and PBP3; assay type: binding, Neisseria gonorrhoeae ATCC 49226; details: strain ATCC 49226
[15] = membrane preparation, 30 min drug then Bocillin FL, read-out: IC50 PBP1 (converted)
[16] = ATCC19424, strain ATCC 19424, read-out: MIC
[17] = ATCC19424, strain ATCC 19424, read-out: MIC (Table S1)
[18] = ATCC49226, strain ATCC 49226, read-out: MIC (Table S1)
[19] = IC50 PBP1, strain ATCC 49226, membrane preparation, 30 min drug then Bocillin FL
[20] = IC50 PBP2 (Table S1), strain ATCC 19424
[21] = IC50 PBP2, strain ATCC 19424, membrane preparation, 30 min drug then Bocillin FL
[22] = ATCC49226, read-out: MIC (Table S1)
[23] = IC50 PBP1 (Table S1), strain ATCC 49226
[24] = IC50 PBP2 (Table S1), strain ATCC 49226
[25] = IC50 PBP2, strain ATCC 49226, membrane preparation, 30 min drug then Bocillin FL
[26] = ATCC49226, strain ATCC 49226, read-out: MIC
[27] = ATCC19424, read-out: MIC (Table S1)

SMILES: C[C@H]1[C@H](NC(=O)/C(=N\OC(C)(C)C(=O)O)c2csc(N)n2)C(=O)N1S(=O)(=O)O [ATM, aztreonam]
- IC50 [1, 15]: > 4.59 µM
- MIC [2, 16]: 0.032 µg/mL (≈ 0.0735 µM)
- MIC [2, 17]: 0.032 µg/mL (≈ 0.0735 µM)
- MIC ([3]; ATCC49226): 0.125 µg/mL (≈ 0.287 µM)
- MIC [3, 18]: 0.25 µg/mL (≈ 0.574 µM)
- pIC50 [4, 19]: < 5.34
- cure rate [5]: 50%

SMILES: NC(=O)[C@@H]1CC[C@@H]2CN1C(=O)N2OS(=O)(=O)O [AVI, avibactam]
- pIC50 [6, 20]: 3.35
- pIC50 [6, 21]: 3.36
- IC50 [1, 15]: > 1930 µM
- MIC [2, 17]: 128 µg/mL (≈ 483 µM)
- MIC ([3]; ATCC49226): > 256 µg/mL
- MIC [3, 22]: 512 µg/mL (≈ 1930 µM)
- pIC50 [7]: 5.06
- pIC50 [8]: 4.69
- pIC50 [9]: 5.06
- pIC50 [4, 23]: < 2.71
- pIC50 [4, 19]: < 3.02
- pIC50 [10]: 4.69
- pIC50 [11, 24]: < 2.71
- pIC50 [11, 25]: < 3.02

SMILES: C[C@@H](O)[C@H]1C(=O)N2C(C(=O)O)=C(S[C@@H]3CN[C@H](CNS(N)(=O)=O)C3)[C@H](C)[C@H]12 [DOR, doripenem]
- pIC50 [6, 21]: 6.85
- IC50 [1, 15]: 2.69 µM
- MIC [2, 16]: 0.004 µg/mL (≈ 0.00951 µM)
- MIC [2, 17]: 0.004 µg/mL (≈ 0.00951 µM)
- MIC [3, 26]: 0.032 µg/mL (≈ 0.0761 µM)
- MIC [3, 18]: 0.032 µg/mL (≈ 0.0761 µM)
- min. IC50 (minimum observed IC50 value) [12]: 0.01 µg/mL
- pIC50 [4, 19]: 5.59
- pIC50 [11, 24]: 6.67
- pIC50 [11, 25]: 6.72

SMILES: CC1(C)S[C@@H]2[C@H](NC(=O)Cc3ccccc3)C(=O)N2[C@H]1C(=O)O [PenG, penicillin G]
- pIC50 [6, 21]: 6.83
- IC50 [1, 15]: 5.65 µM
- MIC [2, 16]: 0.064 µg/mL (≈ 0.191 µM)
- MIC [2, 17]: 0.063 µg/mL (≈ 0.188 µM)
- MIC [3, 26]: 0.125 µg/mL (≈ 0.374 µM)
- MIC [3, 18]: 0.125 µg/mL (≈ 0.374 µM)
- min. IC50 (minimum observed IC50 value) [12]: 0.02 µg/mL
- pIC50 [8]: 7.52
- pIC50 [9]: 7.22
- pIC50 [4, 19]: < 5.22
- pIC50 [10]: 7.52
- pIC50 [11, 25]: 6.11

SMILES: O=C(NC1CCNCC1)[C@@H]1CC[C@@H]2CN1C(=O)N2OS(=O)(=O)O [REL, relebactam]
- pIC50 [6, 20]: 2.83
- pIC50 [6, 21]: < 2.83
- IC50 [1, 15]: > 1470 µM
- MIC ([2]; ATCC19424): > 256 µg/mL
- MIC [2, 27]: 512 µg/mL (≈ 1470 µM)
- MIC ([3]; ATCC49226): > 256 µg/mL
- MIC [3, 22]: 512 µg/mL (≈ 1470 µM)
- pIC50 [7]: 5.44
- pIC50 [8]: 5.42
- pIC50 [9]: 5.44
- pIC50 [4, 23]: < 2.83
- pIC50 [4, 19]: < 3.13
- pIC50 [10]: 5.42
- pIC50 [11, 24]: < 2.83
- pIC50 [11, 25]: < 3.13

SMILES: CC1(C)[C@H](C(=O)O)N2C(=O)C[C@H]2S1(=O)=O [SUL, sulbactam]
- pIC50 [6, 21]: 5.30
- IC50 [1, 15]: 236 µM
- IC50 ([1]; read-out: IC50 PBP1 (Table S1) (converted)): 238 µM
- MIC ([2]; ATCC19424): 0.25 µg/mL (≈ 1.07 µM)
- MIC [2, 27]: 0.25 µg/mL (≈ 1.07 µM)
- MIC ([3]; ATCC49226): 4 µg/mL (≈ 17.1 µM)
- MIC [3, 22]: 4 µg/mL (≈ 17.1 µM)
- pIC50 [13]: 5.30
- min. IC50 (minimum observed IC50 value) [14]: 6.02 µg/mL
- pIC50 [9]: 4.40
- pIC50 [4, 23]: 3.06
- pIC50 [4, 19]: 3.06
- pIC50 [10]: 4.56
- pIC50 [11, 25]: 4.59

From publication PMC10269775, “Penicillin-Binding Protein Occupancy Dataset for 18 β-Lactams and 4 β-Lactamase Inhibitors in Neisseria gonorrhoeae” (Microbiology Spectrum, 2023)
